# In patent US20100113599A1, “AMPHIPATHIC CARBOXYLATES FOR THE TREATMENT OF IMMUNE-RELATED DISORDERS” (Syndromex Ltd. c/o Yissum Research Development Company, of, priority 2007, published 2010):
# Key:
# gp130 transcript = gp130 transcript levels in HepG2 cells (real time RT-PCR); type: cell-based, human; conditions: 200 μM up to 40 h (2, 4, 8, 24, 40 h), normalized with GAPDH
# Protocol: As shown by FIGS. 5-7, treatment of M16αα results in reduction in the protein levels of gp130, which is the tyrosine kinase receptor upstream to STAT3 in this pathway. The inventors thus next examined whether M16αα affects gp130 at the transcription level. Therefore, HepG2 cells were incubated with M16αα (200 μM) for up to 40 h. Total RNA was prepared at 2 h, 4 h, 8 h, 24 h and 40 h, and gp130 transcription was analyzed by real time RT-PCR and normalized with GAPDH.
# gp130 = assay: Overexpressed gp130 protein levels in transfected Hek293 cells (Western blot); type: cell-based; conditions: Hek293 transfected with gp130 expression vector; 200 mM M16αα 9 h, 20 h after transfection
# Protocol: Hek293 cells were transfected with an expression vector for gp130. Following 20 h M16αα ([…]) was added for 9 h. Western blots of cell lysates were reacted with anti gp130 antibodies and normalized by β-actin. Abbreviations: cont. (control).
# In order to examine the mode of action of M16αα in reducing gp130 protein levels, Hek293 cells were transfected with an expression vector for the gp130 protein. Following 20 h after transfection, M16αα ([…]) was added for 9 h. Western blots of cells lysates were reacted with anti-gp130 antibodies and normalized by β-actin. […] This effect was clearer when smaller amounts of plasmid were used for transfection (0.2 microgram).
# HT29 colon cancer cells = assay: BrdU incorporation assay in HT29 colon cancer cells; type: cell-based; conditions: 200 μM
# Protocol: Cells were cultured in Dulbecco's Modified Eagle Medium (DMEM) supplemented with 10% fetal calf serum, glutamine and antibiotics (100,000 units/L penicillin and 100 mg/L streptomycin sulfate).
# The involvement of MEDICA drugs in signal transduction pathways related to immuno-modulatory mechanisms have led the inventors to further investigate the effect of the MEDICA drugs in different disorders associated with abnormal immune reaction. Since cancerous processes may be promoted as a result of interruption of the Th1/Th2 balance, the possible beneficial effect of the MEDICA drugs on tumor proliferation and progression have been next examined. The effect of different concentrations M16αα on cell proliferation was first examined in vitro using the HT29 colon cancer cells as a model for colon cancer. Cells were cultured in the presence of different concentrations of M16αα (50, 100, and 200 μM). Samples obtained from days 1, 2, 3 and 6 were analyzed for cell number using the trypan blue exclusion assay. Proliferation was measured by BrdU incorporation assay.
# RPMI8226 cells [1] = assay: Growth of Multiple Myeloma RPMI8226 cells, Trypan Blue exclusion; type: cell-based; conditions: 200 μM, from day one
# Protocol: Growth Suppression by M16αα of Multiple Myeloma (MM) cells. MM cells were incubated in RPMI 1640 medium in the presence of added M16αα as indicated. Cell number was determined daily by Trypan Blue exclusion.
# The inhibitory effect of MEDICA drugs on colon tumor cell proliferation, presumably via activation of apoptosis, encouraged the inventors to further investigate the potential beneficial effect of these compounds on other malignancies. The inventors therefore next examined the effect of the MEDICA drugs using the Multiple myeloma model. U-266 and RPMI-8226 cell lines served as cell models for MM. MM cells were incubated in RPMI 1640 medium in the presence of M16αα as indicated. Cell number was determined daily by Trypan Blue exclusion assay. […] It should be noted that generally, these cells were more sensitive even to lower concentrations of M16αα.
# U266 cells = assay: Apoptosis markers (PARP, Bcl-2, Bcl-xL) in MM U266 cells (Western blot); type: cell-based; conditions: 200 μM
# Protocol: U266 cells were cultured with 200 μM M16αα for time periods as indicated, lysed, Western blotted and reacted with anti STAT3, p-STAT3 (Y705), PARP or Bcl-xL antibodies.
# To examine the possibility that the inhibitory effect of M16αα, on Multiple Myeloma may be mediated by enhancement of pro apoptotic mechanism and induction of cell cycle arrest, U266 cells were cultured with 200 μM M16αα in RPMI 1640 medium with 10% FCS for time periods as indicated, lysed, Western blotted and reacted with anti STAT3, p-STAT3 (Y705), PARP or Bcl-xL and Bcl-2 as indicated.
# RPMI8226 cells [2] = assay: Cell cycle arrest markers in MM RPMI8226 cells (Western blot); type: cell-based; conditions: 200 μM, 24 h
# Protocol: Cell Cycle arrest of MM RPMI8226 by M16αα. RPMI8226 cells were cultured with 200 μM M16αα, in RPMI 1640 medium with 10% FCS for 24 h, lysed, Western blotted and reacted with anti p-P53(S15) and p-Rb as indicated.
# [3] = tested on: liver APP (SAP, SAA, α-fibrinogen) and IL-6 gene expression; assay: Liver Acute Phase Proteins and IL-6 gene expression in EAE mice (real time PCR); type: in vivo; conditions: EAE mice 60 mg/kg/day 12 days by gavage
# Protocol: To further investigate the preventive potential of MEDICA drugs, and specifically of M16αα on EAE model, the effect of these drugs on different pathways involving activation of the immune system have been next examined. Therefore, female mice were treated with M16αα (60 mg/kg/day) or vehicle (1% CMC, the control group) for 12 days by gavage. On the third day EAE has been induced by injection of the MOG35-55 peptide. Nine days following MOG35-55 peptide immunization, mice were anesthesized and sacrificed. Spleenocytes were prepared and were stimulated in vitro with either MOG (100 μg/ml) or LPS (50 μg/ml) and the activation of STAT3 was analyzed by Western blot using anti p-STAT3 (Y705) and anti GP130 antibodies. Liver was immediately frozen in liquid nitrogen and kept at −70 until used for protein and RNA preparation. Total RNA was prepared and analyzed by real time PCR for SAP, SAA, α-fibrinogen and IL-6 gene expression.
structure (smiles),measurement,setting,value
"CC(C)(CCCCCCCCCCCCC(C)(C)C(=O)O)C(=O)O [M16αα, 2,2,15,15-tetramethyl-hexadecanedioic acid]",gp130 transcript levels,gp130 transcript,remained unaffected
same,gp130 protein levels (overexpressed),gp130,clear reduction
same,BrdU incorporation,HT29 colon cancer cells,significantly reduces
same,cell number relative to control,RPMI8226 cells [1],about 20 % of control
same,"anti-apoptotic markers (Bcl-2, Bcl-xL)",U266 cells,concomitant decrease
same,cleavage of PARP,U266 cells; compared to control cells,enhancement
same,phosphorylated Rb,RPMI8226 cells [2],reduction
same,phosphorylated p53,RPMI8226 cells [2],increase
same,liver APP and IL-6 gene expression,[3],robustly suppressed
